{
  "source": "patent US6358492B1",
  "about": "“Dopamine transporter imaging ligand” (Research Triangle Institute, priority 1997, dated 2002)",
  "key": {"serotonin transporter [1]": {"biological_target": "serotonin transporter (UniProt P31652)", "settings": "read-out: IC50 5-HT [3H]Paroxetine; 0.2 nM [3H]paroxetine; values taken from literature (footnotes d-h); cited from earlier work"}, "[2]": {"biological_target": "norepinephrine transporter (UniProt Q9WTR4)", "settings": "read-out: IC50 NE [3H]Nisoxetine; 0.5 nM [3H]nisoxetine; values taken from literature (footnotes d-h); cited from earlier work"}, "[3]": {"tested_on": "norepinephrine transporter", "experiment": "Inhibition of 0.5 nM [3H]nisoxetine binding to the norepinephrine transporter", "settings": "ratio of IC50 values"}, "serotonin transporter [4]": {"tested_on": "serotonin transporter", "type": "binding", "settings": "for 5-HT/DA Ratio: ratio of IC50 values"}, "dopamine transporter [5]": {"biological_target": "T1, dopamine transporter (UniProt P23977)", "T1 construct": "other: 0.5 nM [3H]WIN 35,428; mean ± standard error where given", "settings": "read-out: IC50 DA [3H]WIN 35,428; 0.5 nM [3H]WIN 35,428; values taken from literature (footnotes c-h); cited from earlier work"}, "[6]": {"biological_target": "norepinephrine transporter (UniProt Q9WTR4)", "experiment": "Inhibition of 0.5 nM [3H]nisoxetine binding to the norepinephrine transporter", "settings": "read-out: IC50 NE [3H]Nisoxetine; 0.5 nM [3H]nisoxetine; mean ± standard error where given"}, "serotonin transporter [7]": {"biological_target": "serotonin transporter (UniProt P31652)", "type": "binding", "settings": "read-out: IC50 5-HT [3H]Paroxetine; 0.2 nM [3H]paroxetine; mean ± standard error where given"}, "dopamine transporter [8]": {"biological_target": "T1, dopamine transporter", "type": "binding", "settings": "read-out: IC50 DA [3H]WIN 35,428; 0.5 nM [3H]WIN 35,428; mean ± standard error where given"}, "dopamine transporter [9]": {"biological_target": "dopamine transporter (Mus musculus, UniProt Q61327)", "sequence (Q61327 whole entry)": "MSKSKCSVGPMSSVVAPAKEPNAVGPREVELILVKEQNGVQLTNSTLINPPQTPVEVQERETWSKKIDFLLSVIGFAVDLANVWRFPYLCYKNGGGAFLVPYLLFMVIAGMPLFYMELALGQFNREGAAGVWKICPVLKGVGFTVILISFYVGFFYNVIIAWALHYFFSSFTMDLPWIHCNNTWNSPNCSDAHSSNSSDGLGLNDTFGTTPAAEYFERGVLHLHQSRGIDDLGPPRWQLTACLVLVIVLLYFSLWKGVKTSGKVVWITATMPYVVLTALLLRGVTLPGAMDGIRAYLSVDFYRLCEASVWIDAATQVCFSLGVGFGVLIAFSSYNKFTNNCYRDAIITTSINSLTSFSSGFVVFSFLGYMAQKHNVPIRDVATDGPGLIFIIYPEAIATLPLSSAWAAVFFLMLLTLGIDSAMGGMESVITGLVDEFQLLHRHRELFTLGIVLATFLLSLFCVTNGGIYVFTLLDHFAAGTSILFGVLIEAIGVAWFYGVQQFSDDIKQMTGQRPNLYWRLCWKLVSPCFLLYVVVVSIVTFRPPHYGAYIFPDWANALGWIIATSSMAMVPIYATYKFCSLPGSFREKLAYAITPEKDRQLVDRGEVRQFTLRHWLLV", "experiment": "In vivo binding / regional brain distribution of radiolabeled ligand after i.v. injection in mice", "method": "Male CD mice weighting 25-35 g received 1 μCi [^3H]RTI-352 ([…], diluted in saline containing 0.5% methanol) by intravenous injection. The animals were killed at different times, and [^3H]RTI-352 concentrations in different brain regions determined as previously described (Scheffel et al., 1989; Cline et al., 1992). To evaluate the selectivity of [^3H]RTI-352 in vivo binding, blocking doses (5 mg/kg, dissolved in 0.1 ml saline) of GBR 12,909 (DAT blocker), desipramine (NET blocker), or paroxetine (5-HTT blocker) were injected intravenously 5 minutes before [^3H]RTI-352 tracer injection. The animals were killed 30 minutes later and [^3H]RTI-352 concentrations determined in the various brain tissues.\nThe percent dose per gram tissue peaked rapidly in all regions of the brain and was maintained for a slightly longer time in the striatum compared to other tissues that lack DAT. The tissue to cerebellar ratios reflected this fact in that striatal to cerebellar ratios were relatively high at early times but low at later times (FIG. 1)."}},
  "note": "Counter-ions that a name gives are not always drawn. Like-named read-outs stand apart in the source and are kept apart here.",
  "data": [
    {"molecule": "COC(=O)C1C(c2ccc(F)cc2)CC2CCC1N2C", "note": "(stereo not shown) [1a]", "values": [
      {"measurement": "IC50", "setting": "serotonin transporter [1]", "result": "810 ± 59", "unit": "nM"},
      {"measurement": "IC50", "setting": "[2]", "result": "835 ± 45", "unit": "nM"}
    ]},
    {"molecule": "COC(=O)C1C(c2ccc(I)cc2)CC2CCC1N2C", "note": "(stereo not shown) [1b, reference compound]", "values": [
      {"measurement": "IC50", "setting": "serotonin transporter [1]", "result": "4.21 ± 0.3", "unit": "nM"},
      {"measurement": "NE/DA Ratio", "setting": "[3]", "result": 29},
      {"measurement": "5-HT/DA Ratio", "setting": "serotonin transporter [4]", "result": 3.3}
    ]},
    {"molecule": "COC(=O)C1C(c2ccc(Cl)cc2)CC2CCC1N2C", "note": "(stereo not shown) [1c]", "values": [
      {"measurement": "IC50", "setting": "serotonin transporter [1]", "result": "44.5 ± 1.3", "unit": "nM"}
    ]},
    {"molecule": "COC(=O)C1C(c2ccccc2)CC2CCC1N2C", "note": "(stereo not shown) [1e]", "values": [
      {"measurement": "IC50", "setting": "[2]", "result": "920 ± 73", "unit": "nM"},
      {"measurement": "IC50", "setting": "dopamine transporter [5]", "result": "23 ± 5", "unit": "nM"}
    ]},
    {"molecule": "COC(=O)[C@@H]1[C@H]2CC[C@@H](C[C@H]1c1ccc(F)cc1)N2C", "note": "[2a, 3α-(4-Fluorophenyl)tropane-2β-carboxylic acid methyl ester]", "values": [
      {"measurement": "IC50", "setting": "[6]", "result": 1230, "unit": "nM"},
      {"measurement": "IC50", "setting": "serotonin transporter [7]", "result": 5060, "unit": "nM"}
    ]},
    {"molecule": "COC(=O)[C@@H]1[C@H]2CC[C@@H](C[C@H]1c1ccc(I)cc1)N2C.Cc1ccc(S(=O)(=O)O)cc1", "note": "[2b, 3α-(4-Iodophenyl)tropane-2β-carboxylic acid methyl ester tosylate]", "values": [
      {"measurement": "IC50", "setting": "dopamine transporter [8]", "result": "2.85 ± 0.16", "unit": "nM"},
      {"measurement": "NE/DA Ratio", "setting": "[3]", "result": 18},
      {"measurement": "IC50", "setting": "[6]", "result": "52.4 ± 4.9", "unit": "nM"},
      {"measurement": "time at which striatal-to-cerebellar ratio peaked", "setting": "dopamine transporter [9]; mouse brain, i.v. tracer", "result": "about 30 min"},
      {"measurement": "time the peak striatal-to-cerebellar ratio was maintained thereafter", "setting": "dopamine transporter [9]; mouse brain, i.v. tracer", "result": "about 20 min"},
      {"measurement": "5-HT/DA Ratio", "setting": "serotonin transporter [4]", "result": 23},
      {"measurement": "times more selective for the DAT relative to the 5-HT transporter", "setting": "serotonin transporter [4]; relative to 1b (RTI-55)", "result": 7, "unit": "times"},
      {"measurement": "IC50", "setting": "serotonin transporter [7]", "result": "64.9 ± 1.97", "unit": "nM"}
    ]},
    {"molecule": "COC(=O)[C@@H]1[C@H]2CC[C@@H](C[C@H]1c1ccc(Cl)cc1)N2C", "note": "[2c, 3α-(4-Chlorophenyl)tropane-2β-carboxylic acid methyl ester tosylate]", "values": [
      {"measurement": "IC50", "setting": "dopamine transporter [8]", "result": "2.4 ± 0.2", "unit": "nM"},
      {"measurement": "IC50", "setting": "serotonin transporter [7]", "result": "998 ± 120", "unit": "nM"}
    ]},
    {"molecule": "COC(=O)[C@@H]1[C@H]2CC[C@@H](C[C@H]1c1ccc(C)cc1)N2C", "note": "[2d, 3α-(4-Methylphenyl)tropane-2β-carboxylic acid methyl ester tosylate]", "values": [
      {"measurement": "IC50", "setting": "dopamine transporter [8]", "result": "10.2 ± 0.8", "unit": "nM"},
      {"measurement": "IC50", "setting": "[6]", "result": "275 ± 24", "unit": "nM"}
    ]},
    {"molecule": "COC(=O)C1C(c2ccccc2)CC2CCC1N2C", "note": "(stereo not shown) [2e]", "values": [
      {"measurement": "IC50", "setting": "dopamine transporter [8]", "result": "101 ± 16", "unit": "nM"},
      {"measurement": "IC50", "setting": "[6]", "result": 2080, "unit": "nM"}
    ]},
    {"molecule": "[3H]C([3H])([3H])N1[C@H]2CC[C@@H]1[C@@H](C(=O)OC)[C@H](c1ccc(I)cc1)C2", "note": "[[^3H]RTI-352]", "values": [
      {"measurement": "hypothalamus/cerebellum ratio", "setting": "dopamine transporter [9]; mouse brain, i.v. 1 μCi tracer, little enrichment at any time", "result": 1.4},
      {"measurement": "efflux from brain", "setting": "dopamine transporter [9]; mouse, i.v. injection", "result": "relatively rapid"},
      {"measurement": "penetration into brain", "setting": "dopamine transporter [9]; mouse, i.v. injection", "result": "very rapid"}
    ]},
    {"molecule": "COC(=O)[C@H]1[C@@H](c2ccc([125I])cc2)C[C@@H]2CC[C@H]1N2C", "note": "[[^125I]RTI-55, reference compound]", "values": [
      {"measurement": "approach to equilibrium of striatal to cerebellar ratios", "setting": "dopamine transporter [9]; mouse, parallel in vivo labeling experiments", "result": "steadily increasing at 120 min"}
    ]}
  ]
}
